Where two headings read alike, the source gives them in different places.
Assays:
IGF-1R kinase = IGF-1R kinase (Homo sapiens, UniProt P08069); experiment: IGF-1R kinase inhibition; format: biochemical; details: IGF-1R kinase inhibitor potency, approx.
A549 cells = experiment: Cell-Titer Glo cell growth inhibition; format: cell-based, human; details: NSCLC cell line A549
Experimental: (§1) The NSCLC lines with IGF-1R, H292, H358, H322, H441, A549, Calu6, H460, H1703 and SW1573 were cultured in the appropriate ATCC recommended supplemented media. Cell extracts were prepared by detergent lysis ((50 mM Tris-HCl, pH8, 150 mM NaCl, 1% NP-40, 0.5% NaDeoxycholate, 0.1% SDS) containing protease and phosphatase inhibitors. The soluble protein concentration was determined by micro-BSA assay (Pierce, Rockford Ill.).
(§2) IGF-1R inhibitor Compound 66 (i.e. 3-(3-Azetidin-1-ylmethyl-cyclobutyl)-1-(2-phenyl-quinolin-7-yl)-imidazo[1,5-a]pyrazin-8-ylamine; see structure below) stock concentration was 10 mM in 100% DMSO (dimethyl sulfoxide). Serial dilutions (1:3 or 1:4) were used to establish the 50% inhibitory dose of IGF-1R inhibitor. Before dosing, inhibitor was diluted in 100% DMSO, and then added to the cells at desired final concentrations in duplicates. The final DMSO concentration was between 0.3-0.5%. Compound 66 was synthesized by the methods described in published International patent application number WO 2005/097800 A1.
(§3) For measuring cell viability, Cell-Titer Glo assay was used, which is available as a kit from Promega. The basis of the assay is a luminescent quantitation of ATP present in a cell culture plate well. In essence, the greater the number of viable cells in the well, the greater the level of ATP present. The assay utilizes a substrate that binds ATP to produce a luminescent signal, which can be read on a luminometer. Unless otherwise noted, the manufacturer's instructions were followed exactly. Briefly, on Day 1, cells were plated in 120 μl of 10% serum-containing growth media at a density of 4000 cells/well in a white polystyrene 96 well assay plate. On day 2, cells were treated with 15 μl of 10× concentration of the IGF-1R inhibitor (e.g. Compound 66, PQIP) or DMSO alone for a final well volume of 150 μl. After 72 h incubation with the inhibitor, the cells were assayed. Results were calculated as a fraction of the DMSO controlled cells.

H292 cells = experiment: Cell-Titer Glo cell growth inhibition; format: cell-based, human; details: NSCLC cell line H292
Experimental: as §1, §2, §3

H358 cells = experiment: Cell-Titer Glo cell growth inhibition; format: cell-based, human; details: NSCLC cell line H358
Experimental: as §1, §2, §3

H441 cells = experiment: Cell-Titer Glo cell growth inhibition; format: cell-based, human; details: NSCLC cell line H441
Experimental: as §1, §2, §3

SW1573 cells = experiment: Cell-Titer Glo cell growth inhibition; format: cell-based, human
Experimental: as §1, §2, §3

H460 cells = experiment: Cell-Titer Glo cell growth inhibition; format: cell-based, human
Experimental: as §1
IGF-1R inhibitor Compound 66 (i.e. 3-(3-Azetidin-1-ylmethyl-cyclobutyl)-1-(2-phenyl-quinolin-7-yl)-imidazo[1,5-a]pyrazin-8-ylamine; see structure below) stock concentration was 10 mM in 100% DMSO (dimethyl sulfoxide). Serial dilutions (1:3 or 1:4) were used to establish the 50% inhibitory dose of IGF-1R inhibitor. Before dosing, inhibitor was diluted in 100% DMSO, and then added to the cells at desired final concentrations in duplicates. The final DMSO concentration was between 0.3-0.5%. […]
(§4) For measuring cell viability, Cell-Titer Glo assay was used, which is available as a kit from Promega. The basis of the assay is a luminescent quantitation of ATP present in a cell culture plate well. […] The assay utilizes a substrate that binds ATP to produce a luminescent signal, which can be read on a luminometer. […] Results were calculated as a fraction of the DMSO controlled cells.

[1] = test system: panel comprised of 28 tumor cell lines; experiment: Cell-Titer Glo cell growth inhibition, tumor cell line panel; format: cell-based, human; details: for inhibition at 3 µM: Homo sapiens, 3 μM PQIP, 28 tumor cell lines
Experimental: as §1
(§5) The cell lines HCT-116, HT-29, GEO, Colo205, SW480, SW620, BxPC3, HPAC, CFPAC-1, MiaPaca-2, Panc1, A1165, MDA-MB-231, MDA-MB-435, DU4475, and MDA-MB468 were routinely cultured in media as prescribed by the ATCC containing 10% FCS. With the exception of GEO tumor cells (obtained from Roswell Park Cancer Institute (RPCI)), and A1165 (obtained from FCRF (NCI-Frederick Cancer Research Facility)) all tumor cells were obtained from the ATCC.
IGF-1R inhibitor Compound PQIP: Synthesis of PQIP: cis-3-[3-(4-Methyl-piperazin-1-yl)-cyclobutyl]1-(2-phenyl-quinolin-7-yl)-imidazo[1,5-a]pyrazin-8-ylamine (PQIP; see structure below), is a 1,3-disubstituted-8-amino-imidazopyrazine derivative synthesized by the methods described in patent application number WO 2005/097800 A1. Compound identity and purity (>99%) was verified by ^1H and ^13C nuclear magnetic resonance, mass spectrometry (MS), and high-performance liquid chromatography using Bruker Advance 400, WatersMicromass ZQ, and Waters LC Module I Plus instruments, respectively, as well as by elemental analysis. PQIP was dissolved in DMSO at 10 mmol/L for use in biochemical or cellular assays done in vitro. […]
as §4

DLD-1 cells = experiment: Cell-Titer Glo cell growth inhibition; format: cell-based, human
Experimental: as §3, with “IGF-1R inhibitor Compound PQIP: […] PQIP was dissolved in DMSO at 10 mmol/L for use in biochemical or cellular assays done in vitro. For in vivo studies, PQIP was dissolved in 25 mmol/L tartaric acid at an appropriate concentration to deliver the desired dose at 20 mL/kg by oral gavage. For” for “For”

RKO cells = experiment: Cell-Titer Glo cell growth inhibition; format: cell-based, human
Experimental: as §3, with “IGF-1R inhibitor Compound PQIP: […] PQIP was dissolved in DMSO at 10 mmol/L for use in biochemical or cellular assays done in vitro. For in vivo studies, PQIP was dissolved in 25 mmol/L tartaric acid at an appropriate concentration to deliver the desired dose at 20 mL/kg by oral gavage. For” for “For”

HCT-116 cells = experiment: Cell-Titer Glo cell growth inhibition; format: cell-based; details: Homo sapiens, 3 μM PQIP, activating mutation in PI3K
Excerpt: as §5
IGF-1R inhibitor Compound PQIP: Synthesis of PQIP: cis-3-[3-(4-Methyl-piperazin-1-yl)-cyclobutyl]1-(2-phenyl-quinolin-7-yl)-imidazo[1,5-a]pyrazin-8-ylamine (PQIP; see structure below), is a 1,3-disubstituted-8-amino-imidazopyrazine derivative synthesized by the methods described in patent application number WO 2005/097800 A1. […]
as §4

MCF-7 cells = experiment: Cell-Titer Glo cell growth inhibition; format: cell-based; details: Homo sapiens, MCF7, 3 μM PQIP, activating mutation in PI3K
Experimental: as §3, with “The” for “For measuring cell viability, Cell-Titer Glo assay was used, which is available as a kit from Promega. The”, “On day 2, cells were treated with 15 μl of 10× concentration of the IGF-1R inhibitor (e.g. Compound 66, PQIP) or DMSO alone for a final well volume of 150 μl.” left out

BxPC3 cells = experiment: Cell-Titer Glo cell growth inhibition; format: cell-based, human; details: BxPC3, growth inhibition by an IGF-1R kinase inhibitor
Excerpt: as §5
(§6) IGF-1R inhibitor Compound PQIP: Synthesis of PQIP: cis-3-[3-(4-Methyl-piperazin-1-yl)-cyclobutyl]1-(2-phenyl-quinolin-7-yl)-imidazo[1,5-a]pyrazin-8-ylamine (PQIP; see structure below), is a 1,3-disubstituted-8-amino-imidazopyrazine derivative synthesized by the methods described in patent application number WO 2005/097800 A1. Compound identity and purity (>99%) was verified by ^1H and ^13C nuclear magnetic resonance, mass spectrometry (MS), and high-performance liquid chromatography using Bruker Advance 400, WatersMicromass ZQ, and Waters LC Module I Plus instruments, respectively, as well as by elemental analysis. PQIP was dissolved in DMSO at 10 mmol/L for use in biochemical or cellular assays done in vitro. For in vivo studies, PQIP was dissolved in 25 mmol/L tartaric acid at an appropriate concentration to deliver the desired dose at 20 mL/kg by oral gavage.
as §3

CFPAC cells = experiment: Cell-Titer Glo cell growth inhibition; format: cell-based, human; details: growth inhibition by an IGF-1R kinase inhibitor
Excerpt: as §5, §6, §3

Colo205 cells = experiment: Cell-Titer Glo cell growth inhibition; format: cell-based, human; details: Colo205, growth inhibition by an IGF-1R kinase inhibitor
Excerpt: as §5, §6, §3

GEO cells = experiment: Cell-Titer Glo cell growth inhibition; format: cell-based, human; details: growth inhibition by an IGF-1R kinase inhibitor
Excerpt: as §5, §6, §3

HPAC cells = experiment: Cell-Titer Glo cell growth inhibition; format: cell-based, human; details: growth inhibition by an IGF-1R kinase inhibitor
Excerpt: as §5, §6, §3

HT-29 cells = experiment: Cell-Titer Glo cell growth inhibition; format: cell-based, human; details: HT-29, growth inhibition by an IGF-1R kinase inhibitor
Excerpt: as §5, §6, §3

MiaPaca-2 cells = experiment: Cell-Titer Glo cell growth inhibition; format: cell-based, human; details: MiaPaca-2, growth inhibition by an IGF-1R kinase inhibitor
Excerpt: as §5, §6, §3

Panc1 cells = experiment: Cell-Titer Glo cell growth inhibition; format: cell-based, human; details: Panc1, growth inhibition by an IGF-1R kinase inhibitor
Excerpt: as §5, §6, §3

IGF-1R kinase, sequence (P08069 31-1367): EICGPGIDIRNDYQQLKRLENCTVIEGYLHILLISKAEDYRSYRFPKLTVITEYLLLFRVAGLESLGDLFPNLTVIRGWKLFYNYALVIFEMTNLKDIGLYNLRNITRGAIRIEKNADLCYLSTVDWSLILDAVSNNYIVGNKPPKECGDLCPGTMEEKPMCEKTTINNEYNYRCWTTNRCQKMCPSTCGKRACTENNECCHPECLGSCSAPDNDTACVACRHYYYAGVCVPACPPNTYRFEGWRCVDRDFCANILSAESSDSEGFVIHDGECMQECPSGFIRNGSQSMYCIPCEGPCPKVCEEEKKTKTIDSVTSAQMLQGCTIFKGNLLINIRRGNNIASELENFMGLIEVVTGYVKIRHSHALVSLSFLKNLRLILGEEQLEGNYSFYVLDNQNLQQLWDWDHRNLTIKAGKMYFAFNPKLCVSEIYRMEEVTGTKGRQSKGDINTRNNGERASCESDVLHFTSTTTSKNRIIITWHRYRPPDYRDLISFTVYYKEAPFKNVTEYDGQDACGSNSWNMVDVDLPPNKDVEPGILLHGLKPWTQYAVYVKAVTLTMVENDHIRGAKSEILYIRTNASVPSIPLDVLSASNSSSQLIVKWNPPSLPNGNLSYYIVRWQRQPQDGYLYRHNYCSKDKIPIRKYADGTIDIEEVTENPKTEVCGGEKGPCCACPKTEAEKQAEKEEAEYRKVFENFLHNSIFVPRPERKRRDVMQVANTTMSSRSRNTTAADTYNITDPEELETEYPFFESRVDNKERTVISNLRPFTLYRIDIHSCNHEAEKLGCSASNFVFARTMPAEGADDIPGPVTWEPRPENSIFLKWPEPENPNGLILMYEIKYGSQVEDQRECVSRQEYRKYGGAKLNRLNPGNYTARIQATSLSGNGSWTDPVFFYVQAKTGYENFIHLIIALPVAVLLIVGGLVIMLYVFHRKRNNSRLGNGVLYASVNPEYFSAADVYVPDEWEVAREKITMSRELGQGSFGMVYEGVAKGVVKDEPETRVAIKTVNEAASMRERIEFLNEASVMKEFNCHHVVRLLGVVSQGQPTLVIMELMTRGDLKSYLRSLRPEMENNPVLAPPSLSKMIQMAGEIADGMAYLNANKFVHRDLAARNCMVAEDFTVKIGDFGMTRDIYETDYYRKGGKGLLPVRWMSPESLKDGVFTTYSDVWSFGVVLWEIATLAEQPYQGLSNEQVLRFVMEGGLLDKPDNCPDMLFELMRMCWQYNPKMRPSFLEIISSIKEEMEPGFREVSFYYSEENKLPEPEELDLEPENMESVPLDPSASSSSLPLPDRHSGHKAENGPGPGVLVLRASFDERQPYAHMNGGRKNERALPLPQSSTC

Nc1nccn2c1c(-c1ccc3ccc(-c4ccccc4)nc3c1)nc2[C@H]1C[C@@H](CN2CCC2)C1 [Compound 66, 3-(3-Azetidin-1-ylmethyl-cyclobutyl)-1-(2-phenyl-quinolin-7-yl)-imidazo[1,5-a]pyrazin-8-ylamine]
IC50 (IGF-1R kinase): ~0.05 µM
sensitivity to Compound 66-mediated growth inhibition (A549 cells): intermediate sensitivity
sensitivity to Compound 66-mediated growth inhibition (H292 cells): sensitive
sensitivity to Compound 66-mediated growth inhibition (H358 cells): sensitive
sensitivity to Compound 66-mediated growth inhibition (H441 cells): sensitive
inhibition at 10 µM (SW1573 cells; Homo sapiens, SW1573 cells, 10 μM inhibitor, read-out: growth inhibition in vitro): < 10%
sensitivity to Compound 66-mediated growth inhibition (SW1573 cells; NSCLC cell line SW1573): relatively insensitive
sensitivity to Compound 66-mediated growth inhibition (H460 cells; NSCLC cell line H460): relatively insensitive

CN1CCN([C@H]2C[C@@H](c3nc(-c4ccc5ccc(-c6ccccc6)nc5c4)c4c(N)nccn43)C2)CC1 [PQIP, cis-3-[3-(4-Methyl-piperazin-1-yl)-cyclobutyl]1-(2-phenyl-quinolin-7-yl)-imidazo[1,5-a]pyrazin-8-ylamine]
inhibition at 3 µM (H460 cells; Homo sapiens, NCI-H460 cells, 3 μM PQIP, activating mutation in PI3K): < 20%
inhibition at 3 µM ([1]; read-out: median growth inhibition for the panel): 37%
inhibition at 3 µM ([1]; 72 hours after dosing, read-out: % maximal growth inhibition, range of sensitivities over the panel): 2 to 72%
effects of varying concentrations on cell proliferation ([1]; all cell lines, data not shown): dose-dependent
sensitivity to IGF-1R inhibition (DLD-1 cells; DLD1, growth inhibition by an IGF-1R kinase inhibitor): relatively sensitive
inhibition at 3 µM (DLD-1 cells; Homo sapiens, DLD-1 cells, 3 μM PQIP, activating mutation in PI3K): < 20%
inhibition at 3 µM (RKO cells; Homo sapiens, RKO cells, 3 μM PQIP, activating mutation in PI3K): < 20%
sensitivity to IGF-1R inhibition (RKO cells; RKO, growth inhibition by an IGF-1R kinase inhibitor): relatively insensitive
inhibition at 3 µM (HCT-116 cells): > 70%
inhibition at 3 µM (MCF-7 cells): > 70%
sensitivity to IGF-1R inhibition (BxPC3 cells): relatively sensitive
sensitivity to IGF-1R inhibition (CFPAC cells): relatively sensitive
sensitivity to IGF-1R inhibition (Colo205 cells): relatively sensitive
sensitivity to IGF-1R inhibition (GEO cells): relatively sensitive
sensitivity to IGF-1R inhibition (HPAC cells): relatively sensitive
sensitivity to IGF-1R inhibition (HT-29 cells): relatively sensitive
sensitivity to IGF-1R inhibition (MiaPaca-2 cells): relatively insensitive
sensitivity to IGF-1R inhibition (Panc1 cells): relatively insensitive
